The source of these data is patent publication US8465921B2, “Hybridization and mismatch discrimination using oligonucleotides conjugated to minor groove binders” (Elitech Holding B.V., priority 1995, dated 2013).

A value given as a limit tells only on which side of the number the result lay.

Data set [1] relates to complementary oligonucleotide. Briefly: Thermal denaturation of hybrids of ODNs and MGB-ODN conjugates with their complements (Table 6). It is filed as binding. The conditions noted are these: 2 μM ODN, 1:1 with complement; 140 mM KCl, 10 mM MgCl2, 20 mM HEPES-HCl (pH 7.2); 0.5° C./min. How it is done:
Hybrids formed between MGB-oligonucleotide conjugates or unmodified oligonucleotides and their complements were melted at a rate of 0.5° C./min in 140 mM KCl, 10 mM MgCl2 and 20 mM HEPES-HCl (pH 7.2) on a Lambda 2S (Perkin Elmer) spectrophotometer with a PTP-6 automatic multicell temperature programmer. Each oligonucleotide (2 μM) was mixed with sufficient complementary oligonucleotide to give a 1:1 ratio. Prior to melting, samples were denatured at 100° C. and then cooled to the starting temperature over a 10 min period. The melting temperatures (Tm) of the hybrids were determined from the derivative maxima and collected in Table 6. In the “sequence” column of Table 6, MGB refers to the presence of CDPI3 conjugated through a hexylamine linker esterified to the 5′-phosphate group of the oligonucleotide (see FIG. 2).

For data set [2], the system named is E. coli supF gene contained in the plasmid pSP189. Kind of data set: Hydrolyzable probe assay with ppG-substituted 15-mer probe (Example 3). It is filed as biochemical. The conditions noted are these: annealing/elongation at 75° C. (FIG. 6). An excerpt: Further increases in discriminatory ability of a MGB-oligonucleotide conjugate are obtained when the conjugate also contains a pyrazolo[3,4-d]pyrimidine nucleotide analogue. In this system, the target sequence is located in the E. coli supF gene contained in the plasmid pSP189 (FIG. 5, SEQ ID No.: 40). See Parris et al. (1992) Gene 117: 1-5. Binding sites for the primers used for amplification are indicated as Primer 1 and Primer 2, with Primer 1 having a sequence and polarity that is identical to that shown in FIG. 5, and Primer 2 having a sequence and polarity that is the reverse complement to that shown in FIG. 5. A 15-mer probe, labeled with fluorescein at the 5′-end, and with TAMRA and CDPI3 at the 3′-end, was designed to be complementary to a region within the approximately 375 nucleotides between the primers, as indicated in FIG. 5. This probe was tested using a series of templates, each containing a different single-nucleotide mismatch with the probe sequence, as shown in FIG. 5 and described infra.
The 15-nucleotide region of the template that is complementary to the probe used in this study was modified to generate a series of point mutations, as shown in FIG. 5. Each of the mutant templates was used in a separate assay with the 15-mer probe. The mutant sequences within this region of the template were as follows, with the mismatched nucleotide indicated by bold underlining: […]

Data set [3] relates to HIA DQβ1 0302 allele in BSM cells. Kind of data set: Sequence-specific alkylation of a gene in cultured human cells (cell culture crosslinking, LM-PCR). It is filed as cell-based.
The test system of a further data set is exact complement. Kind of data set: Tm of 8-mer oligonucleotides with varying A + T content, with and without MGB (Table 11). It is filed as binding. The conditions noted are these: MGB-conjugated 8-mer hybridized with its exact complement. How it is done: Short oligonucleotides of differing A+T content, conjugated to a MGB, were used to investigate the effect of base composition on Tm for MGB-short oligonucleotide conjugates (Table 11). Tms were determined on a Perkin Elmer) λ2S UV/VIS spectrophotometer, equipped with a PTP-6 temperature controller, using the PECSS software package.

The test system of data set [4] is long single stranded DNA template. Kind of data set: Primer extension experiment (blockage of T7 DNA polymerase by ODN). It is filed as biochemical. The note with it: template 5×10^−10 M, primer 4×10^−8 M, blocking ODN 10^−9 M; 15 min at 45° C.; denaturing gel. How it is done:
In this experiment, primer extension occurs with the enzyme T7 DNA polymerase that works from the 5′ end of a template strand. A 16-mer ODN-MGB which was complementary in the Watson Crick sense to a target sequence on the template strand was incubated with a long single stranded DNA template and the T7 DNA polymerase enzyme. […] The minor groove binder was the pyrroloindole tripeptide shown in this application in Table 5. When there was a single mismatch in the sequence specificity of the 16-mer to the target, primer extension was not blocked. Primer extension Was also not blocked when the minor groove binder moiety was attached to the 3′ end of the 16-mer. Primer extension was also not blocked when the sequence specific 16-mer and the free minor groove binder molecule (Compound 3d, not covalently attached to the ODN) was incubated with the template and the enzyme. […] (See Nucleic Acid Research (1993) 21: 5332-5336).
Primer extension reactions were performed as previously described by Lee, et al., (1994) Biochemistry 33: 6024-6030. The final concentrations of template, primer and blocking ODMs were 5×10^−10 M, 4×10^−8 M and 10^−9 M, respectively. Primer extension was carried out for 15 min at 45° C. and the products were analyzed by denaturing gel electrophoresis as described in the reference. […]

As a reminder, the Tm is the temperature at the midpoint of the melting transition. Consider “1 (DNA ATAAAACAGAGGTGAG; DNA, backbone not given here) [compound 1]”, for which the Tm in data set [1] turned out to be 45 °C.

In the case of “2 (DNA ATAAAACAGAGG; DNA, backbone not given here) [compound 2]”, the Tm in data set [1] amounted to 39 °C.

As for “3 (DNA ATAAAACAGA; DNA, backbone not given here) [compound 3]”, in data set [1], the Tm turned out to be 24 °C.

With “4 (DNA TAATAACGTTCGGGCA; DNA, backbone not given here) [compound 4]”, the Tm in data set [1] came to 50 °C.

On to “5 (DNA ATAACG; DNA, backbone not given here) [compound 5]”, for which the Tm in data set [1] came to 16 °C.

For “5'-GGGTTCCCGAGCGGC (chemistry not fully specified) [MGB-conjugated 15-mer, 5′-fluorescein, 3′-TAMRA and CDPI3 probe, all guanine residues replaced by ppG]”, in data set [2], the “generation of signal with single-base mismatch” value is recorded as “completely suppressed” and the “level of signal with perfect match” value was “no effect on the level of signal”.

“5′-GGTTATTTTTGAAGATACGAATTTCUCCAGAGACACAGCAGGATTTGTCA-CDPI3 [CDPI3-containing 50-mer]”: the “alkylation of the targeted site” value in data set [3] (1-50 μM, […], LM-PCR, sequencing gel) is “had bound to and alkylated the targeted site”. In addition, in data set [3] ([…] at 37° C.), the “efficiency of sequence specific alkylation of the 0302 allele versus the same ODN without the MGB” value stood at 10 fold.

As for “5′-MGB-CAATAATA: 8-mer MGB-oligonucleotide conjugate”, the Tm + MGB in the data set with exact complement is 45 °C.

Regarding “8 (DNA CGGGCAAA; DNA, backbone not given here) [compound 8]”, the Tm in data set [1] is 25 °C.

Consider “9 (DNA CGGGCAAAGGATTTAA; DNA, backbone not given here) [compound 9]”, for which the Tm in data set [1] worked out at 47 °C.

On to “10 (DNA GGCAAA; DNA, backbone not given here) [compound 10]”, for which the Tm in data set [1] is less than 17 °C.

Regarding “11 (DNA CGGCTCTA; DNA, backbone not given here) [compound 11]”, the Tm in data set [1] came out at 23 °C.

Regarding “12 (DNA CGGCTCTAATCTATTA; DNA, backbone not given here) [compound 12]”, the Tm in data set [1] amounted to 43 °C.

As to “13 (DNA TATTTTAGATAACCTT; DNA, backbone not given here) [compound 13]”, the melting temperature (Tm) in data set [1] was 34 °C.

In the case of “[3-carbamoyl-1,2-dihydro-3H-pyrrolo[3,2-e]indole-7-carbox]-1-amido-3-propanol Trmer [Compound 3d]”, the “blockage of primer extension by T7 DNA polymerase” value in data set [4] is recorded as “not blocked”.
